Assay results from PubChem BioAssay (NCI).
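These data come from cells grown in 96-well plates and exposed to compound for 48 hours at five concentrations. TGI is the concentration that stops growth completely.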

Columns and labels:
Assay in all cases: DTP human tumour cell line panel, 48 h
[1] = tested on: SK-MEL-28 melanoma
[2] = tested on: SW-620 colon
[3] = tested on: K-562 leukemia
[4] = tested on: MDA-N
[5] = tested on: MDA-MB-435
[6] = tested on: NCI-H226 lung
[7] = tested on: SNB-19 CNS
[8] = tested on: OVCAR-4 ovarian
[9] = tested on: 786-0 renal
[10] = tested on: A498 renal
[11] = tested on: SK-MEL-2 melanoma
[12] = tested on: UACC-257 melanoma
[13] = tested on: IGROV1 ovarian
[14] = tested on: UO-31 renal
[15] = tested on: UACC-62 melanoma
[16] = tested on: CAKI-1 renal
[17] = tested on: SK-OV-3 ovarian
[18] = tested on: NCI-H460 lung
[19] = tested on: M14 melanoma
[20] = tested on: NCI-H522 lung
[21] = tested on: COLO 205 colon
[22] = tested on: KM12 colon
[23] = tested on: SK-MEL-5 melanoma
[24] = tested on: RPMI-8226 leukemia
[25] = tested on: NCI/ADR-RES ovarian
[26] = tested on: OVCAR-3 ovarian
[27] = tested on: SN12C renal
[28] = tested on: MALME-3M melanoma
[29] = tested on: HL-60(TB) leukemia
[30] = tested on: MOLT-4 leukemia
[31] = tested on: ACHN renal
[32] = tested on: HCT-15 colon
[33] = tested on: PC-3 prostate
[34] = tested on: EKVX NSCLC
[35] = tested on: CCRF-CEM leukemia
[36] = tested on: NCI-H23 lung
[37] = tested on: A549 NSCLC
[38] = tested on: OVCAR-8 ovarian
[39] = tested on: HCT-116 colon
[40] = tested on: HS 578T breast
[41] = tested on: DU-145 prostate
[42] = tested on: MDA-MB-231 breast
[43] = tested on: TK-10 renal
[44] = tested on: SF-268 CNS
[45] = tested on: HT29 colon
[46] = tested on: SF-295 CNS
[47] = tested on: OVCAR-5 ovarian
[48] = tested on: U251 CNS
[49] = tested on: HOP-62 NSCLC
[50] = tested on: BT-549 breast
[51] = tested on: SNB-75 CNS
[52] = tested on: HCC-2998 colon
[53] = tested on: HOP-92 NSCLC
[54] = tested on: LOX IMVI melanoma
[55] = tested on: RXF 393 renal
[56] = tested on: SF-539 CNS
[57] = tested on: SR leukemia
[58] = tested on: MCF7 breast

## CC1CC(NN)=Nc2ccccc2N1 (configuration not stated)
[1]
  TGI: > 100 µM
[2]
  TGI: > 100 µM
[3]
  TGI: > 100 µM
[4]
  TGI: > 100 µM
[5]
  TGI: > 100 µM
[6]
  TGI: > 100 µM
[7]
  TGI: > 100 µM
[8]
  TGI: > 100 µM
[9]
  TGI: > 100 µM
[10]
  TGI: > 100 µM
[11]
  TGI: > 100 µM
[12]
  TGI: > 100 µM
[13]
  TGI: > 100 µM
[14]
  TGI: > 100 µM
[15]
  TGI: > 100 µM
[16]
  TGI: > 100 µM
[17]
  TGI: > 100 µM
[18]
  TGI: > 100 µM
[19]
  TGI: > 100 µM
[20]
  TGI: > 100 µM
[21]
  TGI: > 100 µM
[22]
  TGI: > 100 µM
[23]
  TGI: > 100 µM
[24]
  TGI: > 100 µM
[25]
  TGI: > 100 µM
[26]
  TGI: > 100 µM
[27]
  TGI: > 100 µM
[28]
  TGI: > 100 µM
[29]
  TGI: > 100 µM
[30]
  TGI: > 100 µM
[31]
  TGI: > 100 µM
[32]
  TGI: > 100 µM
[33]
  TGI: > 100 µM
[34]
  TGI: > 100 µM
[35]
  TGI: > 100 µM
[36]
  TGI: > 100 µM
[37]
  TGI: > 100 µM
[38]
  TGI: > 100 µM
[39]
  TGI: > 100 µM
[40]
  TGI: > 100 µM
[41]
  TGI: > 100 µM
[42]
  TGI: > 100 µM
[43]
  TGI: > 100 µM
[44]
  TGI: > 100 µM
[45]
  TGI: > 100 µM
[46]
  TGI: > 100 µM
[47]
  TGI: > 100 µM
[48]
  TGI: > 100 µM
[49]
  TGI: > 100 µM
[50]
  TGI: > 100 µM

## CC(OC(C)(C)C)[C@H](NC(=O)OCc1ccccc1)C(=O)NC(OCc1ccccc1)[C@H]1COC(C)(C)O1 (some centres not stated)
[1]
  TGI: > 100 µM
[51]
  TGI: > 10 µM
[2]
  TGI: > 10 µM
[3]
  TGI: > 10 µM
[4]
  TGI: > 10 µM
[5]
  TGI: > 10 µM
[6]
  TGI: > 10 µM
[7]
  TGI: > 10 µM
[8]
  TGI: > 10 µM
[9]
  TGI: > 10 µM
[10]
  TGI: > 10 µM
[11]
  TGI: > 10 µM
[12]
  TGI: > 10 µM
[13]
  TGI: > 10 µM
[14]
  TGI: > 10 µM
[15]
  TGI: > 10 µM
[16]
  TGI: > 10 µM
[17]
  TGI: > 10 µM
[52]
  TGI: > 10 µM
[18]
  TGI: > 10 µM
[19]
  TGI: > 10 µM
[20]
  TGI: > 10 µM
[21]
  TGI: > 10 µM
[22]
  TGI: > 10 µM
[23]
  TGI: > 10 µM
[25]
  TGI: > 10 µM
[26]
  TGI: > 10 µM
[27]
  TGI: > 10 µM
[28]
  TGI: > 10 µM
[29]
  TGI: > 10 µM
[30]
  TGI: > 10 µM
[31]
  TGI: > 10 µM
[32]
  TGI: > 10 µM
[33]
  TGI: > 10 µM
[34]
  TGI: > 10 µM
[35]
  TGI: > 10 µM
[36]
  TGI: > 10 µM
[37]
  TGI: > 100 µM
[38]
  TGI: > 10 µM
[39]
  TGI: > 100 µM
[40]
  TGI: > 10 µM
[41]
  TGI: > 100 µM
[53]
  TGI: > 10 µM
[42]
  TGI: > 10 µM
[43]
  TGI: > 10 µM
[44]
  TGI: > 100 µM
[45]
  TGI: > 10 µM
[54]
  TGI: > 10 µM
[55]
  TGI: > 100 µM
[46]
  TGI: > 10 µM
[47]
  TGI: > 10 µM
[48]
  TGI: > 10 µM
[56]
  TGI: > 10 µM
[49]
  TGI: > 10 µM
[50]
  TGI: > 10 µM

## CC(C)C1(Cl)CCC2C3(C)CCCC(C)(C(=O)O)C3CC(Cl)C2(Cl)C1Cl (configuration not stated)
[1]
  TGI: 72.1 µM
[57]
  TGI: > 100 µM
[2]
  TGI: > 100 µM
[3]
  TGI: > 100 µM
[4]
  TGI: > 100 µM
[5]
  TGI: 62.3 µM
[6]
  TGI: 78.6 µM
[7]
  TGI: > 100 µM
[8]
  TGI: 84 µM
[9]
  TGI: > 100 µM
[10]
  TGI: > 100 µM
[11]
  TGI: > 100 µM
[12]
  TGI: > 100 µM
[13]
  TGI: > 100 µM
[14]
  TGI: > 100 µM
[15]
  TGI: 84.4 µM
[16]
  TGI: > 100 µM
[52]
  TGI: 81.9 µM
[18]
  TGI: 75.2 µM
[19]
  TGI: > 100 µM
[20]
  TGI: > 100 µM
[21]
  TGI: 37.2 µM
[22]
  TGI: 37.7 µM
[23]
  TGI: 82.5 µM
[24]
  TGI: 62.7 µM
[25]
  TGI: > 100 µM
[58]
  TGI: > 100 µM
[27]
  TGI: > 100 µM
[28]
  TGI: > 100 µM
[29]
  TGI: 62.6 µM
[30]
  TGI: > 100 µM
[31]
  TGI: > 100 µM
[32]
  TGI: > 100 µM
[33]
  TGI: > 100 µM
[34]
  TGI: 91.3 µM
[35]
  TGI: > 100 µM
[36]
  TGI: > 100 µM
[37]
  TGI: > 100 µM
[38]
  TGI: > 100 µM
[39]
  TGI: > 100 µM
[40]
  TGI: > 100 µM
[53]
  TGI: > 100 µM
[42]
  TGI: > 100 µM
[43]
  TGI: > 100 µM
[44]
  TGI: > 100 µM
[45]
  TGI: 50.4 µM
[54]
  TGI: > 100 µM
[47]
  TGI: 94.7 µM
[48]
  TGI: 62.5 µM
[56]
  TGI: 46.5 µM
[50]
  TGI: > 100 µM

## COC(=O)Cc1c(C(=O)CC(C)(C)n2cnc(CCN3C(=O)CCC3=O)c2)[nH]c2ccccc12
[1]
  TGI: > 100 µM
[51]
  TGI: > 100 µM
[57]
  TGI: > 100 µM
[2]
  TGI: > 100 µM
[3]
  TGI: > 100 µM
[4]
  TGI: > 100 µM
[5]
  TGI: > 100 µM
[6]
  TGI: > 100 µM
[7]
  TGI: > 100 µM
[8]
  TGI: > 100 µM
[9]
  TGI: > 100 µM
[11]
  TGI: > 100 µM
[12]
  TGI: > 100 µM
[13]
  TGI: > 100 µM
[14]
  TGI: > 100 µM
[15]
  TGI: > 100 µM
[16]
  TGI: > 100 µM
[17]
  TGI: > 100 µM
[18]
  TGI: > 100 µM
[19]
  TGI: > 100 µM
[20]
  TGI: > 100 µM
[21]
  TGI: > 100 µM
[22]
  TGI: > 100 µM
[23]
  TGI: > 100 µM
[25]
  TGI: > 100 µM
[58]
  TGI: > 100 µM
[26]
  TGI: > 100 µM
[27]
  TGI: > 100 µM
[28]
  TGI: > 100 µM
[30]
  TGI: > 100 µM
[31]
  TGI: > 100 µM
[32]
  TGI: > 100 µM
[33]
  TGI: > 100 µM
[34]
  TGI: > 100 µM
[35]
  TGI: > 100 µM
[36]
  TGI: > 100 µM
[37]
  TGI: > 100 µM
[38]
  TGI: > 100 µM
[39]
  TGI: > 100 µM
[40]
  TGI: > 100 µM
[41]
  TGI: > 100 µM
[53]
  TGI: > 100 µM
[42]
  TGI: > 100 µM
[43]
  TGI: > 100 µM
[44]
  TGI: > 100 µM
[45]
  TGI: > 100 µM
[54]
  TGI: > 100 µM
[55]
  TGI: 96 µM
[46]
  TGI: > 100 µM
[47]
  TGI: > 100 µM
[48]
  TGI: > 100 µM
[56]
  TGI: > 100 µM
[50]
  TGI: > 100 µM

## COc1cccc(CC2C(=O)N=C(NC(C)=O)N2C)c1OC(C)=O (configuration not stated)
[1]
  TGI: > 100 µM
[51]
  TGI: > 100 µM
[2]
  TGI: > 100 µM
[4]
  TGI: > 100 µM
[5]
  TGI: > 100 µM
[6]
  TGI: > 100 µM
[7]
  TGI: > 100 µM
[8]
  TGI: > 100 µM
[9]
  TGI: > 100 µM
[11]
  TGI: > 100 µM
[12]
  TGI: > 100 µM
[13]
  TGI: > 100 µM
[14]
  TGI: > 100 µM
[15]
  TGI: > 100 µM
[16]
  TGI: > 100 µM
[17]
  TGI: > 100 µM
[52]
  TGI: > 100 µM
[18]
  TGI: > 100 µM
[19]
  TGI: > 100 µM
[20]
  TGI: > 100 µM
[21]
  TGI: > 100 µM
[22]
  TGI: > 100 µM
[23]
  TGI: > 100 µM
[25]
  TGI: > 100 µM
[58]
  TGI: > 100 µM
[26]
  TGI: > 100 µM
[27]
  TGI: > 100 µM
[29]
  TGI: > 100 µM
[30]
  TGI: > 100 µM
[31]
  TGI: > 100 µM
[32]
  TGI: > 100 µM
[33]
  TGI: > 100 µM
[34]
  TGI: > 100 µM
[35]
  TGI: > 100 µM
[36]
  TGI: > 100 µM
[37]
  TGI: > 100 µM
[38]
  TGI: > 100 µM
[39]
  TGI: > 100 µM
[40]
  TGI: > 100 µM
[41]
  TGI: > 100 µM
[53]
  TGI: > 100 µM
[42]
  TGI: > 100 µM
[43]
  TGI: > 100 µM
[44]
  TGI: > 100 µM
[45]
  TGI: > 100 µM
[54]
  TGI: > 100 µM
[55]
  TGI: > 100 µM
[46]
  TGI: > 100 µM
[47]
  TGI: > 100 µM
[48]
  TGI: > 100 µM
[56]
  TGI: > 100 µM
[49]
  TGI: > 100 µM
[50]
  TGI: > 100 µM
